Among the data in ChEMBL document CHEMBL5725985, “Substituted pyridines as sodium channel blockers” (2017) are IC50 values, retold here.

Molecules are shown by their SMILES.

This assay has as its target Sodium channel protein type 9 subunit alpha (Homo sapiens, UniProt Q15858). As to the kind of experiment: FLIPR Assay: In vitro assays were performed in a recombinant cell line expressing cDNA encoding the alpha subunit (Nav1.7, SCN9a, PN1, NE) of human Nav1.7 (Accession No. NM_002977). The cell line was provided by investigators at Yale University (Cummins et al, J. Neurosci. 18(23): 9607-9619 (1998)). For dominant selection of the Nav1.7-expressing clones, the expression plasmid co-expressed the neomycin resistance gene. The cell line was constructed in the human embryonic kidney cell line, HEK293, under the influence of the CMV […] promoter, and stable clones were selected using limiting dilution cloning and antibiotic selection using the neomycin analogue, G418. Recombinant beta and gamma subunits were not introduced into this cell line. Additional cell lines expressing recombinant Nav1.7 cloned from other species can also be used, alone or in combination with various beta subunits, gamma subunits or chaperones.

Sequence of Sodium channel protein type 9 subunit alpha (Q15858 whole entry): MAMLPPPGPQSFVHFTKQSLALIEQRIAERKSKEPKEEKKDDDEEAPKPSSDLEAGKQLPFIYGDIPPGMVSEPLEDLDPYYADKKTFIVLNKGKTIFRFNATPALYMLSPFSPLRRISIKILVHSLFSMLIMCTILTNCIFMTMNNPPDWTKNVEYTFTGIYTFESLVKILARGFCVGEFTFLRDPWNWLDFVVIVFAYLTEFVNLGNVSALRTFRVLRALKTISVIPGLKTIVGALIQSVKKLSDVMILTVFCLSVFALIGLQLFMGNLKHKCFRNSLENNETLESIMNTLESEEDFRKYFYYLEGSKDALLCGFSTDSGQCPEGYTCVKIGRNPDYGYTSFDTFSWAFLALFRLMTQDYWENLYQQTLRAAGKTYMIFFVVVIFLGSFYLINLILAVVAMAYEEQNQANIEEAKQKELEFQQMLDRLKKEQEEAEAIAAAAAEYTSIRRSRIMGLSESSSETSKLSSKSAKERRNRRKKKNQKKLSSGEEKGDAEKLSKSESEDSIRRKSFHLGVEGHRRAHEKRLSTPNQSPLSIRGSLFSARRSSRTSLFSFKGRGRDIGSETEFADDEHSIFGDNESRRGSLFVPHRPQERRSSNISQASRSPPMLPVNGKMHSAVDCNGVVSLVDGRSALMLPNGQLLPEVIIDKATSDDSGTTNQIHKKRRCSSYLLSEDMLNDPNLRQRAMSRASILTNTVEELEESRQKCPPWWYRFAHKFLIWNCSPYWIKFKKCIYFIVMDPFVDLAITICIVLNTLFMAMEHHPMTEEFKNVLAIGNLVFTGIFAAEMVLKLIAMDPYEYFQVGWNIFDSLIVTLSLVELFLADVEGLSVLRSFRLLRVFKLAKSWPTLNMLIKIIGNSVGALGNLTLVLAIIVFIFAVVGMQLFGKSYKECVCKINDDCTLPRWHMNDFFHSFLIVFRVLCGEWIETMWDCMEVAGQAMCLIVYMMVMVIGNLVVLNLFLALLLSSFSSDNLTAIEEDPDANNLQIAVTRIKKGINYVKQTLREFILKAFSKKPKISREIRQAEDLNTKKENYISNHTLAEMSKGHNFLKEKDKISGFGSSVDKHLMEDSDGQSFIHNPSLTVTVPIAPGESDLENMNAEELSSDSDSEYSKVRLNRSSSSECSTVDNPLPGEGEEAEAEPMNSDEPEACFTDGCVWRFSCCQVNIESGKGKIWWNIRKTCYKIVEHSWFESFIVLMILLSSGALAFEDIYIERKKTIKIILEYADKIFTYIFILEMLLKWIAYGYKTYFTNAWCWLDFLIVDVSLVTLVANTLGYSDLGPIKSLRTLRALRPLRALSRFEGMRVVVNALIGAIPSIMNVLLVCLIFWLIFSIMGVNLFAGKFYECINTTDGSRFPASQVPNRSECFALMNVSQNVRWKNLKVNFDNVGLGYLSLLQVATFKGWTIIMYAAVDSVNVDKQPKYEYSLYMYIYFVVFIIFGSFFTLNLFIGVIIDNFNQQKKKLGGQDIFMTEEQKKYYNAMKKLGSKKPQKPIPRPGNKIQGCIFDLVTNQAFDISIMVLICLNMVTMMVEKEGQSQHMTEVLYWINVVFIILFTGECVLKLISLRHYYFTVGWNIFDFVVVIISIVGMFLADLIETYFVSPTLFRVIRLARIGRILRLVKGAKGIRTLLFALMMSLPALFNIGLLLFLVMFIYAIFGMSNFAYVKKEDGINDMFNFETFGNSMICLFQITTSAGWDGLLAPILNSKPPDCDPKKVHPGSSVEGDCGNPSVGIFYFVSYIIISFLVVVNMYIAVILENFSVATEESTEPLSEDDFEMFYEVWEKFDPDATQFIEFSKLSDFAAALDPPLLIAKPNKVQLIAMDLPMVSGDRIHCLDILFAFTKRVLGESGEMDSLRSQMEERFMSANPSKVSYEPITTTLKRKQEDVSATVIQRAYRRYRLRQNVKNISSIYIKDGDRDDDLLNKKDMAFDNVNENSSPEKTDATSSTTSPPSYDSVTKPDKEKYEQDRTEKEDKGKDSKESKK

Consider `CC(C)C[C@H](NC(=O)C1CC1)C(=O)Nc1cccc(-c2ccc(Oc3ccc(F)cc3)cc2)n1`, for which the IC50 came out at 36 nM.
